{"source": "ChEMBL document CHEMBL3044925", "about": "“Synthesis of piperazino and morpholino derivatives of aryloxypropane with potential analgesic and possible antimigraine activities” (Med Chem Res, 2011)", "key": {"Mus musculus [1]": {"system": "Mus musculus", "experiment": "Neurotoxicity against Mus musculus MFI (mouse) assessed as effect on respiration at 120 mg/kg, ip", "assay_type": "toxicity, organism-based", "design": "dose 120 mg/kg, route intraperitoneal", "conditions": "in vivo"}, "Mus musculus [2]": {"system": "Mus musculus", "experiment": "Neurotoxicity against Mus musculus MFI (mouse) assessed as hair erection at 60 mg/kg, ip", "assay_type": "toxicity, organism-based", "design": "dose 60 mg/kg, route intraperitoneal", "conditions": "in vivo"}, "Mus musculus [3]": {"system": "Mus musculus", "experiment": "[…] activity in Mus musculus MFI (mouse) assessed as inhibition of PBQ-induced writhing at 120 mg/kg, ip administered 1.5 hr prior to PBQ-challenge measured after 10 min relative to aspirin", "assay_type": "functional", "conditions": "route intraperitoneal"}, "Mus musculus [4]": {"system": "Mus musculus", "experiment": "Neurotoxicity against Mus musculus MFI (mouse) assessed as excitation at 180 mg/kg, ip", "assay_type": "toxicity, organism-based", "design": "dose 180 mg/kg, route intraperitoneal", "conditions": "in vivo"}, "Mus musculus [5]": {"system": "Mus musculus", "experiment": "Neurotoxicity against Mus musculus MFI (mouse) assessed as tail erection at 180 mg/kg, ip", "assay_type": "toxicity, organism-based", "design": "dose 180 mg/kg, route intraperitoneal", "conditions": "in vivo"}, "Mus musculus [6]": {"system": "Mus musculus", "experiment": "Neurotoxicity against Mus musculus MFI (mouse) assessed as tremors at 60 mg/kg, ip", "assay_type": "toxicity, organism-based", "design": "dose 60 mg/kg, route intraperitoneal", "conditions": "in vivo"}, "Mus musculus [7]": {"system": "Mus musculus", "experiment": "Neurotoxicity against Mus musculus MFI (mouse) assessed as irritability at 60 mg/kg, ip", "assay_type": "toxicity, organism-based", "design": "dose 60 mg/kg, route intraperitoneal", "conditions": "in vivo"}, "Mus musculus [8]": {"system": "Mus musculus", "experiment": "Neurotoxicity against Mus musculus MFI (mouse) assessed as skeletal muscle incoordination at 180 mg/kg, ip", "assay_type": "toxicity, organism-based, Muscle tissue", "design": "dose 180 mg/kg, route intraperitoneal", "conditions": "in vivo"}, "Mus musculus [9]": {"system": "Mus musculus", "experiment": "Neurotoxicity against Mus musculus MFI (mouse) assessed as skeletal muscle incoordination at 120 mg/kg, ip", "assay_type": "toxicity, organism-based, Muscle tissue", "design": "dose 120 mg/kg, route intraperitoneal", "conditions": "in vivo"}, "Mus musculus [10]": {"system": "Mus musculus", "experiment": "Neurotoxicity against Mus musculus MFI (mouse) assessed as tremors at 180 mg/kg, ip", "assay_type": "toxicity, organism-based", "design": "dose 180 mg/kg, route intraperitoneal", "conditions": "in vivo"}, "Mus musculus [11]": {"system": "Mus musculus", "experiment": "Neurotoxicity against Mus musculus MFI (mouse) assessed as tail erection at 120 mg/kg, ip", "assay_type": "toxicity, organism-based", "design": "dose 120 mg/kg, route intraperitoneal", "conditions": "in vivo"}, "Mus musculus [12]": {"system": "Mus musculus", "experiment": "Neurotoxicity against Mus musculus MFI (mouse) assessed as effect on respiration at 180 mg/kg, ip", "assay_type": "toxicity, organism-based", "design": "dose 180 mg/kg, route intraperitoneal", "conditions": "in vivo"}, "Mus musculus [13]": {"system": "Mus musculus", "experiment": "Neurotoxicity against Mus musculus MFI (mouse) assessed as eye protrusion at 120 mg/kg, ip", "assay_type": "toxicity, organism-based", "design": "dose 120 mg/kg, route intraperitoneal", "conditions": "in vivo"}, "Mus musculus [14]": {"system": "Mus musculus", "experiment": "[…] activity in Mus musculus MFI (mouse) assessed as inhibition of PBQ-induced writhing at 180 mg/kg, ip administered 1.5 hr prior to PBQ-challenge measured after 10 min relative to aspirin", "assay_type": "functional", "conditions": "route intraperitoneal"}, "Mus musculus [15]": {"system": "Mus musculus", "experiment": "Neurotoxicity in ip dosed Mus musculus MFI (mouse)", "assay_type": "toxicity, organism-based", "conditions": "in vivo"}, "Mus musculus [16]": {"system": "Mus musculus", "experiment": "Neurotoxicity against Mus musculus MFI (mouse) assessed as muscle twitching at 60 mg/kg, ip", "assay_type": "toxicity, organism-based, Muscle tissue", "design": "dose 60 mg/kg, route intraperitoneal", "conditions": "in vivo"}, "Mus musculus [17]": {"system": "Mus musculus", "experiment": "Neurotoxicity against Mus musculus MFI (mouse) assessed as skeletal muscle incoordination at 60 mg/kg, ip", "assay_type": "toxicity, organism-based, Muscle tissue", "design": "dose 60 mg/kg, route intraperitoneal", "conditions": "in vivo"}, "Mus musculus [18]": {"system": "Mus musculus", "experiment": "Neurotoxicity against Mus musculus MFI (mouse) assessed as tremors at 120 mg/kg, ip", "assay_type": "toxicity, organism-based", "design": "dose 120 mg/kg, route intraperitoneal", "conditions": "in vivo"}, "Mus musculus [19]": {"system": "Mus musculus", "experiment": "[…] activity in ip dosed Mus musculus MFI (mouse) assessed as inhibition of PBQ-induced writhing administered 1.5 hr prior to PBQ-challenge measured after 10 min", "assay_type": "functional", "conditions": "read-out: MED"}, "Mus musculus [20]": {"system": "Mus musculus", "experiment": "Neurotoxicity against Mus musculus MFI (mouse) assessed as epilepsy at 60 mg/kg, ip", "assay_type": "toxicity, organism-based", "design": "dose 60 mg/kg, route intraperitoneal", "conditions": "in vivo"}, "Mus musculus [21]": {"system": "Mus musculus", "experiment": "[…] activity in Mus musculus MFI (mouse) assessed as inhibition of PBQ-induced writhing at 60 mg/kg, ip administered 1.5 hr prior to PBQ-challenge measured after 10 min relative to aspirin", "assay_type": "functional", "conditions": "route intraperitoneal"}, "Mus musculus [22]": {"system": "Mus musculus", "experiment": "Neurotoxicity against Mus musculus MFI (mouse) assessed as irritability at 180 mg/kg, ip", "assay_type": "toxicity, organism-based", "design": "dose 180 mg/kg, route intraperitoneal", "conditions": "in vivo"}, "Mus musculus [23]": {"system": "Mus musculus", "experiment": "Neurotoxicity against Mus musculus MFI (mouse) assessed as epilepsy at 120 mg/kg, ip", "assay_type": "toxicity, organism-based", "design": "dose 120 mg/kg, route intraperitoneal", "conditions": "in vivo"}, "Mus musculus [24]": {"system": "Mus musculus", "experiment": "Neurotoxicity against Mus musculus MFI (mouse) assessed as irritability at 120 mg/kg, ip", "assay_type": "toxicity, organism-based", "design": "dose 120 mg/kg, route intraperitoneal", "conditions": "in vivo"}, "Mus musculus [25]": {"system": "Mus musculus", "experiment": "Neurotoxicity against Mus musculus MFI (mouse) assessed as hair erection at 180 mg/kg, ip", "assay_type": "toxicity, organism-based", "design": "dose 180 mg/kg, route intraperitoneal", "conditions": "in vivo"}, "Mus musculus [26]": {"system": "Mus musculus", "experiment": "Neurotoxicity against Mus musculus MFI (mouse) assessed as eye protrusion at 60 mg/kg, ip", "assay_type": "toxicity, organism-based", "design": "dose 60 mg/kg, route intraperitoneal", "conditions": "in vivo"}, "Mus musculus [27]": {"system": "Mus musculus", "experiment": "Neurotoxicity against Mus musculus MFI (mouse) assessed as muscle twitching at 120 mg/kg, ip", "assay_type": "toxicity, organism-based, Muscle tissue", "design": "dose 120 mg/kg, route intraperitoneal", "conditions": "in vivo"}, "Mus musculus [28]": {"system": "Mus musculus", "experiment": "Neurotoxicity against Mus musculus MFI (mouse) assessed as excitation at 120 mg/kg, ip", "assay_type": "toxicity, organism-based", "design": "dose 120 mg/kg, route intraperitoneal", "conditions": "in vivo"}, "Mus musculus [29]": {"system": "Mus musculus", "experiment": "Neurotoxicity against Mus musculus MFI (mouse) assessed as hair erection at 120 mg/kg, ip", "assay_type": "toxicity, organism-based", "design": "dose 120 mg/kg, route intraperitoneal", "conditions": "in vivo"}, "Mus musculus [30]": {"system": "Mus musculus", "experiment": "Neurotoxicity against Mus musculus MFI (mouse) assessed as muscle twitching at 180 mg/kg, ip", "assay_type": "toxicity, organism-based, Muscle tissue", "design": "dose 180 mg/kg, route intraperitoneal", "conditions": "in vivo"}, "Mus musculus [31]": {"system": "Mus musculus", "experiment": "Neurotoxicity against Mus musculus MFI (mouse) assessed as tail erection at 60 mg/kg, ip", "assay_type": "toxicity, organism-based", "design": "dose 60 mg/kg, route intraperitoneal", "conditions": "in vivo"}, "Mus musculus [32]": {"system": "Mus musculus", "experiment": "Neurotoxicity against Mus musculus MFI (mouse) assessed as eye protrusion at 180 mg/kg, ip", "assay_type": "toxicity, organism-based", "design": "dose 180 mg/kg, route intraperitoneal", "conditions": "in vivo"}, "Mus musculus [33]": {"system": "Mus musculus", "experiment": "Neurotoxicity against Mus musculus MFI (mouse) assessed as excitation at 60 mg/kg, ip", "assay_type": "toxicity, organism-based", "design": "dose 60 mg/kg, route intraperitoneal", "conditions": "in vivo"}, "Mus musculus [34]": {"system": "Mus musculus", "experiment": "Neurotoxicity against Mus musculus MFI (mouse) assessed as epilepsy at 180 mg/kg, ip", "assay_type": "toxicity, organism-based", "design": "dose 180 mg/kg, route intraperitoneal", "conditions": "in vivo"}, "Mus musculus [35]": {"system": "Mus musculus", "experiment": "Neurotoxicity against Mus musculus MFI (mouse) assessed as effect on respiration at 60 mg/kg, ip", "assay_type": "toxicity, organism-based", "design": "dose 60 mg/kg, route intraperitoneal", "conditions": "in vivo"}, "Mus musculus [36]": {"system": "Mus musculus", "experiment": "[…] activity in Mus musculus MFI (mouse) assessed as inhibition of PBQ-induced writhing at 100 mg/kg, ip administered 1.5 hr prior to PBQ-challenge measured after 10 min relative to control", "assay_type": "functional", "conditions": "route intraperitoneal"}}, "data": [{"molecule": "CC(COc1cccc(Cl)c1Cl)N1CCN(C)CC1.O=C(O)C(=O)O", "note": "(racemic)", "values": [{"measurement": "Activity", "setting": "Mus musculus [1]", "result": "Toxic"}, {"measurement": "Activity", "setting": "Mus musculus [2]", "result": "Toxic"}, {"measurement": "inhibition in vivo at 120 mg/kg", "setting": "Mus musculus [3]", "result": 75, "unit": "%"}, {"measurement": "Activity", "setting": "Mus musculus [4]", "result": "Toxic"}, {"measurement": "Activity", "setting": "Mus musculus [5]", "result": "Toxic"}, {"measurement": "Activity", "setting": "Mus musculus [6]", "result": "Toxic"}, {"measurement": "Activity", "setting": "Mus musculus [7]", "result": "Toxic"}, {"measurement": "Activity", "setting": "Mus musculus [8]", "result": "Toxic"}, {"measurement": "Activity", "setting": "Mus musculus [9]", "result": "Toxic"}, {"measurement": "Activity", "setting": "Mus musculus [10]", "result": "Toxic"}, {"measurement": "Activity", "setting": "Mus musculus [11]", "result": "Toxic"}, {"measurement": "Activity", "setting": "Mus musculus [12]", "result": "Toxic"}, {"measurement": "Activity", "setting": "Mus musculus [13]", "result": "Toxic"}, {"measurement": "inhibition in vivo at 180 mg/kg", "setting": "Mus musculus [14]", "result": 100, "unit": "%"}, {"measurement": "MTC", "setting": "Mus musculus [15]", "result": 120, "unit": "mg/kg"}, {"measurement": "Activity", "setting": "Mus musculus [16]", "result": "Toxic"}, {"measurement": "Activity", "setting": "Mus musculus [17]", "result": "Toxic"}, {"measurement": "Activity", "setting": "Mus musculus [18]", "result": "Toxic"}, {"measurement": "minimal effective dose", "setting": "Mus musculus [19]", "result": 60, "unit": "mg/kg"}, {"measurement": "Activity", "setting": "Mus musculus [20]", "result": "Toxic"}, {"measurement": "inhibition in vivo at 60 mg/kg", "setting": "Mus musculus [21]", "result": 37.5, "unit": "%"}, {"measurement": "Activity", "setting": "Mus musculus [22]", "result": "Toxic"}, {"measurement": "Activity", "setting": "Mus musculus [23]", "result": "Toxic"}, {"measurement": "Activity", "setting": "Mus musculus [24]", "result": "Toxic"}, {"measurement": "Activity", "setting": "Mus musculus [25]", "result": "Toxic"}, {"measurement": "Activity", "setting": "Mus musculus [26]", "result": "Toxic"}, {"measurement": "Activity", "setting": "Mus musculus [27]", "result": "Toxic"}, {"measurement": "Activity", "setting": "Mus musculus [28]", "result": "Toxic"}, {"measurement": "Activity", "setting": "Mus musculus [29]", "result": "Toxic"}, {"measurement": "Activity", "setting": "Mus musculus [30]", "result": "Toxic"}, {"measurement": "Activity", "setting": "Mus musculus [31]", "result": "Toxic"}, {"measurement": "Activity", "setting": "Mus musculus [32]", "result": "Toxic"}, {"measurement": "Activity", "setting": "Mus musculus [33]", "result": "Toxic"}, {"measurement": "Activity", "setting": "Mus musculus [34]", "result": "Toxic"}, {"measurement": "Activity", "setting": "Mus musculus [35]", "result": "Toxic"}]}, {"molecule": "CC(=O)Oc1ccccc1C(=O)O", "note": "[ASPIRIN]", "values": [{"measurement": "inhibition in vivo at 100 mg/kg", "setting": "Mus musculus [36]", "result": 100, "unit": "%"}]}]}
